One data set addresses CA-I (Homo sapiens, UniProt P00915). The data set is described as follows: stopped-flow CO2 hydration assay, CA-I. Format: biochemical. The settings on record: errors 5–10% from three assays, read-out: Inhibition constant (Ki) CA-I.
In another data set the target is CA-II (Homo sapiens, UniProt P00918). The data set is described as follows: stopped-flow CO2 hydration assay, CA-II. The data set is classed as biochemical. The note with it: errors 5–10% from three assays, read-out: Inhibition constant (Ki) CA-II.
A further data set deals with CA-IV (Homo sapiens, UniProt P22748). Put plainly: stopped-flow CO2 hydration assay, CA-IV. The data set is classed as biochemical. The note with it: errors 5–10% from three assays, read-out: Inhibition constant (Ki) CA-IV.
CA-IV, sequence (P22748 19-312): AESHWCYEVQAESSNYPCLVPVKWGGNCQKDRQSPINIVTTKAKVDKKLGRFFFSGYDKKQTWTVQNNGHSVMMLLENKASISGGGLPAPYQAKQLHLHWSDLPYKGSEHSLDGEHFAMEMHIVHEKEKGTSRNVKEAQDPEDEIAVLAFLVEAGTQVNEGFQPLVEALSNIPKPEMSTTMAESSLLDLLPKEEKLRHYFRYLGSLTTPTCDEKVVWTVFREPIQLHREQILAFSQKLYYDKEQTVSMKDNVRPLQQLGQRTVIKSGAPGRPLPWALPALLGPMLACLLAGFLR
Another data set has as its target CA-IX (Homo sapiens, UniProt Q16790). The data set is described as follows: stopped-flow CO2 hydration assay, CA-IX. The settings on record: errors 5–10% from three assays, read-out: Inhibition constant (Ki) CA-IX. Format: biochemical.

As usually defined, the Ki is the equilibrium dissociation constant of an inhibitor or competing ligand from its target. The melting point is the temperature of the solid-liquid transition.

Each structure is given as a SMILES string. Where a name gives a salt, the structure may show the parent alone.

CA-I, sequence (P00915 whole entry): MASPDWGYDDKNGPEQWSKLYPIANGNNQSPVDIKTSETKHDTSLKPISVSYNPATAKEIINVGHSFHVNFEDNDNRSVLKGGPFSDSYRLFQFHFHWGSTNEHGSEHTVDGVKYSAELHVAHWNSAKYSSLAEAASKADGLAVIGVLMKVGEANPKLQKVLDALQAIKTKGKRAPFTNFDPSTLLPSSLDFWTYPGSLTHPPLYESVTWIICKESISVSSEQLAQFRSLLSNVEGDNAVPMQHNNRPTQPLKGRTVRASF

With `C[N+](C)(Cc1ccc(F)cc1)Cc1ccc(C(=O)NCc2cccc(S(N)(=O)=O)c2)cc1` [Compound 1, N-4-[[[3-(aminosulfonyl)benzyl]amino]carbonyl] benzyl-N,N-dimethyl-4-fluorobenzylammonium bromide], the inhibition constant Ki on CA-I is 890 nM; at CA-II, 720 nM; on CA-IV, over 50000 nM; at CA-IX, 440 nM.

`C[N+](C)(Cc1ccc(F)cc1)Cc1ccc(C(=O)NCc2ccc(S(N)(=O)=O)cc2)cc1` (as salt: bromide) [Compound 3, N-4-[[[4-(aminosulfonyl)benzyl]amino]carbonyl] benzyl-N,N-dimethyl-4-fluorobenzylammonium bromide] returned a melting point of 228 °C.

Regarding `C[N+](C)(Cc1ccc(F)cc1)Cc1ccc(C(=O)NCCc2ccc(S(N)(=O)=O)cc2)cc1` [Compound 2, N-4-[[[2-[4-(aminosulfonyl)phenyl]ethyl]amino]carbonyl]benzyl-N,N-dimethyl-4-fluorobenzylammonium bromide], the Ki at CA-I was found to be 520 nM; at CA-II it was 70 nM; on CA-IV, 9540 nM; at CA-IX it was 220 nM.

In the case of `C[N+](C)(Cc1ccc(F)cc1)Cc1ccc(C(=O)NCc2ccc(S(N)(=O)=O)cc2)cc1` [Compound 3, N-4-[[[4-(aminosulfonyl)benzyl]amino]carbonyl] benzyl-N,N-dimethyl-4-fluorobenzylammonium bromide], the Ki on CA-I is 780 nM; on CA-II, 480 nM; on CA-IV it was 3630 nM; on CA-IX it was 960 nM.

Turning to `C[N+](C)(Cc1ccc(F)cc1)Cc1ccc(C(=O)NCc2cccc(S(N)(=O)=O)c2)cc1` (as salt: bromide) [Compound 1, N-4-[[[3-(aminosulfonyl)benzyl]amino]carbonyl] benzyl-N,N-dimethyl-4-fluorobenzylammonium bromide], the melting point was 226 °C.

Regarding `C[N+](C)(Cc1ccc(F)cc1)Cc1ccc(C(=O)NCCc2ccc(S(N)(=O)=O)cc2)cc1` (as salt: bromide) [Compound 2, N-4-[[[2-[4-(aminosulfonyl)phenyl]ethyl]amino]carbonyl]benzyl-N,N-dimethyl-4-fluorobenzylammonium bromide], the melting point is 215 °C.
